Here are results for 32 molecules from US4654348A, “Pyrazolo[4,3-d]pyrimidine derivative, process for its production, antihyperlipidemic agent containing it, its intermediate, and process for the production of the intermediate” (Nissan Chemical Industries Ltd., priority 1984, dated 1987).

For this series, the system named is emulsion-induced hyperlipidemic rats. The series can be described thus: Test 1: antihyperlipidemic activity in emulsion-induced hyperlipidemic rats (serum Chol, HDL-Chol, liver weight). Format: in vivo, male S.D. rats. As to conditions: 3 days, vs control; for inhibition in vivo at 300 mg/kg / change in vivo at 300 mg/kg: Rattus norvegicus, po, 72 h, 300 mg/kg/day via stomach tube; for inhibition in vivo at 300 mg/kg: read-out: Reduction rate of serum Chol.; for change in vivo at 300 mg/kg: read-out: Increase rate of serum HDL-Chol; for Degree of hepatomegaly (change rate of the liver weight): liver weight per 100 g body weight, 300 mg/kg/day. The procedure: The antihyperlipidemic activity in emulsion-induced hyperlipidemic rats:
Male S.D. rats weighing 80-90 g (4 weeks old) were used. They were divided into groups of 5 to 6 rats each. The test compounds suspended in 0.5% CMC-Na(carboxymethyl cellulose sodium salt) were given to the rats in a daily dose of 4 ml/kg (i.e. 300 mg/kg of the test compounds) via stomach tube every 10:00 a.m. After 30 min., lipids emulsion having the following composition was orally given to the rats in an amount of 2.5 ml per rat.
Cholic acid sodium salt 10.0 g
During the experimental period of 3 days, the rats were fed on a standard commercial diet and water ad libitum. […] The total cholesterol and HDL cholesterol were measured.
The weight of the liver was measured. To the control group, only the aqueous CMC-Na solution and the lipids emulsion were given.
The fractionation of lipoproteins was conducted by a dextran sulfate-MgCl2 precipitation method.
Cholesterol in serum was measured by means of a cholesterol measuring kit (Cholesterol C-Test Wako, manufactured by Wako Junyaku Co., Ltd.), and cholesterol in HDL was measured by means of NC Hi-Set, manufactured by Nippon Chemiphar Co., Ltd.
Further, the reduction rate of Chol was calculated by the following equation. [formula] where A is the amount of serum Chol (mg/dl) of the control group, and B is the amount of serum Chol (mg/dl) of the group to which the therapeutic agent was administered.
Likewise, the increase rate of HDL-Chol was calculated by the following equation. [formula] where C is the amount of serum HDL-Chol (mg/dl) of the control group, and D is the amount of serum HDL-Chol (mg/dl) of the group to which the therapeutic agent was administered.
The degree of hepatomegaly (i.e. the change rate of the liver weight) was calculated by the following equation. [formula] where E is the liver weight (g) per 100 g of the body weight of the control group, and F is the liver weight (g) per 100 g of the body weight of the group to which the therapeutic agent was administered.

`CCCCC/C=C\C/C=C\CCCCCCCCOc1c2ncnc(SCc3ccccc3)c2nn1C` [Example 62, 2-Methyl-linoleyloxy-7-benzylthio-pyrazolo[4,3-d]pyrimidine]: the inhibition in vivo at 300 mg/kg worked out at 17%.

Regarding `CCCCCCCCOc1c2ncnc(SCC(=O)OCC)c2nn1C` [Example 42, 2-Methyl-3-n-octyloxy-7-ethoxycarbonylmethylthio-pyrazolo[4,3-d]pyrimidine], the inhibition in vivo at 300 mg/kg turned out to be 32%. Still for that read-out and setting: then `CCCCCCCCOc1c2ncnc(SC(C)(C)C(=O)OCC)c2nn1C` [Example 27, 2-Methyl-3-n-octyloxy-7-(1-ethoxycarbonyl1-methyl-ethylthio)-pyrazolo[4,3-d]pyrimidine], with 16%; and `CCCCOCCOCCOc1c2ncnc(SCC(=O)OCC)c2nn1C` [Example 39, 2-Methyl-3-(3,6-dioxadecyloxy)-7-ethoxycarbonylmethylthio-pyrazolo[4,3-d]pyrimidine], with 11%. As for `CCCCC/C=C\C/C=C\CCCCCCCCOc1c2ncnc(SCCCCCC)c2nn1C` [Example 55, 2-Methyl-3-linoleyloxy-7-n-hexylthio-pyrazolo[4,3-d]pyrimidine], the inhibition in vivo at 300 mg/kg was 58%. Still for that read-out and setting: then `C=CCCCCCCCCOc1c2ncnc(SCC(=O)OCC)c2nn1C` [Example 45, 2-methyl-3-(9-decenyloxy)-7-ethoxycarbonylmethylthio-pyrazolo[4,3-d]pyrimidine], with 22%. The same measure, in the same setting: then `CCOC(=O)C(C)(C)Sc1ncnc2c(OCCO)n(C)nc12` [Example 30, 2-Methyl-3-(2-hydroxyethyloxy)-7-(1-ethoxycarbonyl-1-methyl-ethylthio) pyrazolo[4,3-d]pyrimidine], with 28%; and `CCCCC/C=C\C/C=C\CCCCCCCCOc1c2ncnc(SCCCCC(=O)OCC)c2nn1C` [Example 60, 2-Methyl-3-linoleyloxy-7-[4-(ethoxycarbonyl)butylthio]-pyrazolo[4,3-d]pyrimidine], with 22%; and `CCOC(=O)CSc1ncnc2c(OC3CCC(C)CC3)n(C)nc12` (stereo not drawn) [Example 35, 2-Methyl-3-(4-methylcyclohexyloxy)-7-ethoxycarbonylmethylthio-pyrazolo[4,3-d]pyrimidine], with 13%. For the molecule `CCCCCCCC/C=C/CCCCCCCCOc1c2ncnc(SCC(=O)OCC)c2nn1C` [Example 70, 2-Methyl-3-elaidyloxy-7-ethoxycarbonylmethylthio-pyrazolo[4,3-d]pyrimidine], the inhibition in vivo at 300 mg/kg stood at 63%. Same read-out and setting: as for `CCOC(=O)CSc1ncnc2c(OC3CCC(C4CCCCC4)CC3)n(C)nc12` (stereo not drawn) [Example 34, 2-Methyl-3-(4-cyclohexyl-cyclohexyloxy)-7-ethoxycarbonylmethylthio-pyrazolo[4,3-d]pyrimidine], the figure is 12%.

On to `CCCCCCCCCCCCCCCCOc1c2ncnc(SCC(=O)OC)c2nn1C` [Example 15, 2-Methyl-3-n-hexadecyloxy-7-methoxycarbonylmethylthio-pyrazolo[4,3-d]pyrimidine], for which the inhibition in vivo at 300 mg/kg amounted to 53%.

As to `CCCCCCCCCCCCCCCCCCOc1c2ncnc(SCC(=O)OCC)c2nn1C` [Example 6, 2-Methyl-3-n-octadecyloxy-7-ethoxycarbonylmethylthio-pyrazolo[4,3-d]pyrimidine], the change in vivo at 300 mg/kg came to 9%, the inhibition in vivo at 300 mg/kg turned out to be 31% and the “Degree of hepatomegaly (change rate of the liver weight)” value is -1%. `C=CCCCCCCCCCOc1c2ncnc(SCC(=O)OCC)c2nn1C` [Example 73, 2-Methyl-3-(10-undecenyloxy)-7-ethoxycarbonylmethylthio-pyrazolo[4,3-d]pyrimidine]: the inhibition in vivo at 300 mg/kg was determined as 27%. Consider `CCCCCCCCC#CCCCCCCCCOc1c2ncnc(SCC(=O)OCC)c2nn1C` [Example 44, 2-Methyl-3-(9-octadecynyloxy)-7-ethoxycarbonylmethylthio-pyrazolo[4,3-d]pyrimidine], for which the inhibition in vivo at 300 mg/kg came to 39%. For the molecule `CCCCCCCCCCCCCCCCOc1c2ncnc(SCCCCCCCCCCCCCCCC)c2nn1C` [Example 24, 2-Methyl-3-n-hexadecyloxy-7-n-hexadecylthio-pyrazolo[4,3-d]pyrimidine], the inhibition in vivo at 300 mg/kg worked out at 41%. Regarding `CCCCC/C=C\C/C=C\CCCCCCCCOc1c2ncnc(SC(C)C(=O)OCC)c2nn1C` (stereo not drawn) [Example 58, 2-Methyl-3-linoleyloxy-7-(1-ethoxycarbonylethylthio)-pyrazolo[4,3-d]pyrimidine], the inhibition in vivo at 300 mg/kg stood at 32%. Consider `CCCCC/C=C\C/C=C\CCCCCCCCOc1c2ncnc(SCCCC(=O)OCC)c2nn1C` [Example 59, 2-Methyl-3-linoleyloxy-7-[3-(ethoxycarbonyl)propylthio]-pyrazolo[4,3-d]pyrimidine], for which the inhibition in vivo at 300 mg/kg was found to be 68%. Regarding `C=CCCCCCCCCOc1c2ncnc(SCC(=O)OCC)c2nn1-c1ccccc1` [Example 51, 2-Phenyl-3-(9-decenyloxy)-7-ethoxycarbonylmethylthio-pyrazolo[4,3-d]pyrimidine], the inhibition in vivo at 300 mg/kg was 58%. `CCCCC/C=C\C/C=C\CCCCCCCCOc1c2ncnc(SC(C(=O)OCC)C(C)C)c2nn1C` (stereo not drawn) [Example 63, 2-Methyl-3-linoleyloxy-7-(1-ethoxycarbonyl-2-methylpropylthio)pyrazolo[4,3-d]pyrimidine]: the inhibition in vivo at 300 mg/kg is 39%. `CCCCCCCCCCCCCCC(C)Oc1c2ncnc(SCC(=O)OCC)c2nn1C` (stereo not drawn) [Example 43, 2-Methyl-3-(1-methylpentadecyloxy)-7-ethoxycarbonylmethylthio-pyrazolo[4,3-d]pyrimidine]: the inhibition in vivo at 300 mg/kg came to 28%. As to `CCCCCCCCCCC/C=C\CCCCCOc1c2ncnc(SCC(=O)OCC)c2nn1C` [Example 71, 2-Methyl-3-petroselinyloxy-7-ethoxycarbonylmethylthio-pyrazolo[4,3-d]pyrimidine], the inhibition in vivo at 300 mg/kg amounted to 64%. Same read-out and setting: as for `CCOC(=O)CSc1ncnc2c(OCCCC(C)=O)n(C)nc12` [Example 46, 2-Methyl-3-(4-oxo-pentyloxy)-7-ethoxycarbonymethylthio-pyrazolo[4,3-d]pyrimidine], the figure is 11%.

On to `CCOC(=O)CSc1ncnc2c(OCCOCc3ccc(C(C)(C)C)cc3)n(-c3ccccc3)nc12` [Example 48, 2-Phenyl-3-[2-(4-t-butylbenzyloxy)ethyloxy]-7-ethoxycarbonylmethylthio-pyrazolo[4,3-d]pyrimidine], for which the inhibition in vivo at 300 mg/kg stood at 34%.

With `CCCCCCCCCCCCCCCCOc1c2ncnc(SC3C(=O)OCC3C)c2nn1C` (stereo not drawn) [Example 25, 2-Methyl-3-n-hexadecyloxy-7-[4-(3-methyl-5-oxotetrahydrofuranyl)thio]-pyrazolo[4,3-d]pyrimidine], the inhibition in vivo at 300 mg/kg worked out at 11%. Regarding `CCOC(=O)CSc1ncnc2c(OCCOCc3ccc(CC)cc3)n(C)nc12` [Example 37, 2-Methyl-3-[2-(4-ethylbenzyloxy)ethoxy]7-ethoxycarbonylmethylthio-pyrazolo[4,3-d]pyrimidine], the inhibition in vivo at 300 mg/kg came to 37%. Take `CCCCCCCCCCCCCCCCOc1c2ncnc(SCCCCCC)c2nn1C` [Example 23, 2-Methyl-3-n-hexadecyloxy-7-n-hexylthiopyrazolo[4,3-d]pyrimidine]: the change in vivo at 300 mg/kg was 30%, the inhibition in vivo at 300 mg/kg amounted to 39% and the “Degree of hepatomegaly (change rate of the liver weight)” value is 0%. In the case of `CCCCCCCCCCCCOc1c2ncnc(SCC(=O)OCC)c2nn1C` [Example 2, 2-Methyl-3-n-dodecyloxy-7-ethoxycarbonylmethylthio-pyrazolo[4,3-d]pyrimidine], the inhibition in vivo at 300 mg/kg is 36%. On to `CCCCCCCCCCCCCCCCOc1c2ncnc(SCC(=O)OC(C)C)c2nn1C` [Example 16, 2-Methyl-3-n-hexadecyloxy-7-isopropoxycarbonylmethylthio-pyrazolo[4,3-d]pyrimidine], for which the inhibition in vivo at 300 mg/kg was determined as 26%.

On to `CCCCCCCCCCCCOc1c2ncnc(SC(C)(C)C(=O)OCC)c2nn1-c1ccccc1` [Example 32, 2-Phenyl-3-n-dodecyloxy-7-(1-ethoxycarbonyl-1-methylethylthio)-pyrazolo[4,3-d]pyrimidine], for which the inhibition in vivo at 300 mg/kg worked out at 50%. With `CCCCCCC#CCCOc1c2ncnc(SCC(=O)OCC)c2nn1C` [Example 74, 2-Methyl-3-(3-decynyloxy)-7-ethoxycarbonylmethylthio-pyrazolo[4,3-d]pyrimidine], the inhibition in vivo at 300 mg/kg worked out at 16%. For the molecule `CCCCC/C=C\C/C=C\CCCCCCCCOc1c2ncnc(SCC(=O)OCCCC)c2nn1C` [Example 56, 2-Methyl-3-linoleyloxy-7-n-butoxycarbonylmethylthio-pyrazolo[4,3-d]pyrimidine], the inhibition in vivo at 300 mg/kg was found to be 60%.
